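A five-concentration, 48-hour dose response in 96-well plates underlies each endpoint, interpolated linearly between surrounding concentrations. GI50 marks 50% less growth. TGI denotes the concentration required for complete inhibition of growth.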
How the values were obtained:
Assay in all cases: NCI tumour cell line growth inhibition, 48 h
A549 NSCLC = tested on: A549 NSCLC
MDA-MB-435 = tested on: MDA-MB-435
SN12C renal = tested on: SN12C renal
HOP-92 NSCLC = tested on: HOP-92 NSCLC
MALME-3M melanoma = tested on: MALME-3M melanoma
LOX IMVI melanoma = tested on: LOX IMVI melanoma
TK-10 renal = tested on: TK-10 renal
HCT-15 colon = tested on: HCT-15 colon
UACC-257 melanoma = tested on: UACC-257 melanoma
NCI/ADR-RES ovarian = tested on: NCI/ADR-RES ovarian
EKVX NSCLC = tested on: EKVX NSCLC
SR leukemia = tested on: SR leukemia
OVCAR-8 ovarian = tested on: OVCAR-8 ovarian
NCI-H226 lung = tested on: NCI-H226 lung
SF-295 CNS = tested on: SF-295 CNS
UACC-62 melanoma = tested on: UACC-62 melanoma
NCI-H522 lung = tested on: NCI-H522 lung
SF-268 CNS = tested on: SF-268 CNS
SW-620 colon = tested on: SW-620 colon
CAKI-1 renal = tested on: CAKI-1 renal
SNB-19 CNS = tested on: SNB-19 CNS
HCC-2998 colon = tested on: HCC-2998 colon
A498 renal = tested on: A498 renal
KM12 colon = tested on: KM12 colon
HL-60(TB) leukemia = tested on: HL-60(TB) leukemia
MCF7 breast = tested on: MCF7 breast
MDA-MB-231 breast = tested on: MDA-MB-231 breast
SNB-75 CNS = tested on: SNB-75 CNS
HT29 colon = tested on: HT29 colon
OVCAR-3 ovarian = tested on: OVCAR-3 ovarian
T-47D breast = tested on: T-47D breast
SF-539 CNS = tested on: SF-539 CNS
DU-145 prostate = tested on: DU-145 prostate
NCI-H460 lung = tested on: NCI-H460 lung
UO-31 renal = tested on: UO-31 renal
RXF 393 renal = tested on: RXF 393 renal
BT-549 breast = tested on: BT-549 breast
SK-OV-3 ovarian = tested on: SK-OV-3 ovarian
HCT-116 colon = tested on: HCT-116 colon
HOP-62 NSCLC = tested on: HOP-62 NSCLC
MOLT-4 leukemia = tested on: MOLT-4 leukemia
SK-MEL-28 melanoma = tested on: SK-MEL-28 melanoma
COLO 205 colon = tested on: COLO 205 colon
OVCAR-4 ovarian = tested on: OVCAR-4 ovarian
M14 melanoma = tested on: M14 melanoma
786-0 renal = tested on: 786-0 renal
NCI-H23 lung = tested on: NCI-H23 lung
SK-MEL-5 melanoma = tested on: SK-MEL-5 melanoma
SK-MEL-2 melanoma = tested on: SK-MEL-2 melanoma
OVCAR-5 ovarian = tested on: OVCAR-5 ovarian
ACHN renal = tested on: ACHN renal
RPMI-8226 leukemia = tested on: RPMI-8226 leukemia
HS 578T breast = tested on: HS 578T breast
U251 CNS = tested on: U251 CNS
PC-3 prostate = tested on: PC-3 prostate

**Q.** For `O=S(=O)(Nc1ccc2ccccc2c1)N1CCCCC1`, which GI50 (A549 NSCLC) is on record?
**A.** 11.9 µM

**Q.** What about the TGI (A549 NSCLC) of the same compound?
**A.** 38.1 µM

**Q.** What about the GI50 (MDA-MB-435) of the same compound?
**A.** 1.91 µM

**Q.** What about the TGI (MDA-MB-435) of the same compound?
**A.** 10.8 µM

**Q.** And the GI50 (SN12C renal)?
**A.** 13.2 µM

**Q.** And the TGI (SN12C renal)?
**A.** 29.1 µM

**Q.** What about the GI50 (HOP-92 NSCLC) of the same compound?
**A.** 5.42 µM

**Q.** And the TGI (HOP-92 NSCLC)?
**A.** 20.4 µM

**Q.** And the GI50 (MALME-3M melanoma)?
**A.** 14.5 µM

**Q.** And the TGI (MALME-3M melanoma)?
**A.** 34 µM

**Q.** What about the GI50 (LOX IMVI melanoma) of the same compound?
**A.** 9.97 µM

**Q.** What about the TGI (LOX IMVI melanoma) of the same compound?
**A.** 24.6 µM

**Q.** And the GI50 (TK-10 renal)?
**A.** 12.7 µM

**Q.** What about the TGI (TK-10 renal) of the same compound?
**A.** 32.1 µM

**Q.** And the GI50 (HCT-15 colon)?
**A.** 8 µM

**Q.** And the TGI (HCT-15 colon)?
**A.** 35.2 µM

**Q.** What about the GI50 (UACC-257 melanoma) of the same compound?
**A.** 10.1 µM

**Q.** What about the TGI (UACC-257 melanoma) of the same compound?
**A.** 24 µM

**Q.** What about the GI50 (NCI/ADR-RES ovarian) of the same compound?
**A.** 4.09 µM

**Q.** What about the TGI (NCI/ADR-RES ovarian) of the same compound?
**A.** 22.2 µM

**Q.** What about the GI50 (EKVX NSCLC) of the same compound?
**A.** 7.99 µM

**Q.** What about the TGI (EKVX NSCLC) of the same compound?
**A.** 41 µM

**Q.** What about the GI50 (SR leukemia) of the same compound?
**A.** 4.15 µM

**Q.** And the TGI (SR leukemia)?
**A.** 44.6 µM

**Q.** What about the GI50 (OVCAR-8 ovarian) of the same compound?
**A.** 19.6 µM

**Q.** What about the TGI (OVCAR-8 ovarian) of the same compound?
**A.** 57 µM

**Q.** What about the GI50 (NCI-H226 lung) of the same compound?
**A.** 14.8 µM

**Q.** And the TGI (NCI-H226 lung)?
**A.** 33.2 µM

**Q.** What about the GI50 (SF-295 CNS) of the same compound?
**A.** 2.4 µM

**Q.** And the TGI (SF-295 CNS)?
**A.** 15.2 µM

**Q.** What about the GI50 (UACC-62 melanoma) of the same compound?
**A.** 8.7 µM

**Q.** And the TGI (UACC-62 melanoma)?
**A.** 22.2 µM

**Q.** What about the GI50 (NCI-H522 lung) of the same compound?
**A.** 2.49 µM

**Q.** What about the TGI (NCI-H522 lung) of the same compound?
**A.** 8 µM

**Q.** And the GI50 (SF-268 CNS)?
**A.** 11.7 µM

**Q.** And the TGI (SF-268 CNS)?
**A.** 28.8 µM

**Q.** And the GI50 (SW-620 colon)?
**A.** 5.7 µM

**Q.** And the TGI (SW-620 colon)?
**A.** 20.7 µM

**Q.** And the GI50 (CAKI-1 renal)?
**A.** 1.81 µM

**Q.** And the TGI (CAKI-1 renal)?
**A.** 7.97 µM

**Q.** And the GI50 (SNB-19 CNS)?
**A.** 18.4 µM

**Q.** And the TGI (SNB-19 CNS)?
**A.** > 100 µM

**Q.** What about the GI50 (HCC-2998 colon) of the same compound?
**A.** 8.35 µM

**Q.** What about the TGI (HCC-2998 colon) of the same compound?
**A.** 22.2 µM

**Q.** And the GI50 (A498 renal)?
**A.** 3.33 µM

**Q.** What about the TGI (A498 renal) of the same compound?
**A.** 15.7 µM

**Q.** And the GI50 (KM12 colon)?
**A.** 4.21 µM

**Q.** What about the TGI (KM12 colon) of the same compound?
**A.** 17.2 µM

**Q.** And the GI50 (HL-60(TB) leukemia)?
**A.** 9.31 µM

**Q.** What about the TGI (HL-60(TB) leukemia) of the same compound?
**A.** 43.2 µM

**Q.** And the GI50 (MCF7 breast)?
**A.** 9.55 µM

**Q.** And the TGI (MCF7 breast)?
**A.** 88.9 µM

**Q.** And the GI50 (MDA-MB-231 breast)?
**A.** 10.1 µM

**Q.** What about the TGI (MDA-MB-231 breast) of the same compound?
**A.** 25 µM

**Q.** What about the GI50 (SNB-75 CNS) of the same compound?
**A.** 2.38 µM

**Q.** What about the TGI (SNB-75 CNS) of the same compound?
**A.** 20.7 µM

**Q.** What about the GI50 (HT29 colon) of the same compound?
**A.** 4.87 µM

**Q.** And the TGI (HT29 colon)?
**A.** 18.9 µM

**Q.** And the GI50 (OVCAR-3 ovarian)?
**A.** 4.71 µM

**Q.** And the TGI (OVCAR-3 ovarian)?
**A.** 16.7 µM

**Q.** What about the GI50 (T-47D breast) of the same compound?
**A.** 11 µM

**Q.** And the TGI (T-47D breast)?
**A.** 45.8 µM

**Q.** What about the GI50 (SF-539 CNS) of the same compound?
**A.** 10.5 µM

**Q.** What about the TGI (SF-539 CNS) of the same compound?
**A.** 24.9 µM

**Q.** And the GI50 (DU-145 prostate)?
**A.** 12.1 µM

**Q.** What about the TGI (DU-145 prostate) of the same compound?
**A.** 30.3 µM

**Q.** What about the GI50 (NCI-H460 lung) of the same compound?
**A.** 10.1 µM

**Q.** And the TGI (NCI-H460 lung)?
**A.** 23.3 µM

**Q.** What about the GI50 (UO-31 renal) of the same compound?
**A.** 6.87 µM

**Q.** And the TGI (UO-31 renal)?
**A.** 22.9 µM

**Q.** And the GI50 (RXF 393 renal)?
**A.** 5.58 µM

**Q.** And the TGI (RXF 393 renal)?
**A.** 19.7 µM

**Q.** And the GI50 (BT-549 breast)?
**A.** 13.8 µM

**Q.** What about the TGI (BT-549 breast) of the same compound?
**A.** 28.4 µM

**Q.** And the GI50 (SK-OV-3 ovarian)?
**A.** 8.93 µM

**Q.** And the TGI (SK-OV-3 ovarian)?
**A.** 37.4 µM

**Q.** And the GI50 (HCT-116 colon)?
**A.** 9.94 µM

**Q.** And the TGI (HCT-116 colon)?
**A.** 23.4 µM

**Q.** And the GI50 (HOP-62 NSCLC)?
**A.** 3.93 µM

**Q.** What about the TGI (HOP-62 NSCLC) of the same compound?
**A.** 18.7 µM

**Q.** What about the GI50 (MOLT-4 leukemia) of the same compound?
**A.** 7.21 µM

**Q.** What about the TGI (MOLT-4 leukemia) of the same compound?
**A.** 58 µM

**Q.** And the GI50 (SK-MEL-28 melanoma)?
**A.** 12 µM

**Q.** And the TGI (SK-MEL-28 melanoma)?
**A.** 28 µM

**Q.** And the GI50 (COLO 205 colon)?
**A.** 9.36 µM

**Q.** And the TGI (COLO 205 colon)?
**A.** 25.3 µM

**Q.** And the GI50 (OVCAR-4 ovarian)?
**A.** 15.6 µM

**Q.** What about the TGI (OVCAR-4 ovarian) of the same compound?
**A.** 50.1 µM

**Q.** And the GI50 (M14 melanoma)?
**A.** 8.94 µM

**Q.** What about the TGI (M14 melanoma) of the same compound?
**A.** 25.5 µM

**Q.** And the GI50 (786-0 renal)?
**A.** 13.6 µM

**Q.** What about the TGI (786-0 renal) of the same compound?
**A.** 30 µM

**Q.** And the GI50 (NCI-H23 lung)?
**A.** 12.2 µM

**Q.** What about the TGI (NCI-H23 lung) of the same compound?
**A.** 34 µM

**Q.** What about the GI50 (SK-MEL-5 melanoma) of the same compound?
**A.** 8.33 µM

**Q.** What about the TGI (SK-MEL-5 melanoma) of the same compound?
**A.** 21 µM

**Q.** And the GI50 (SK-MEL-2 melanoma)?
**A.** 9.85 µM

**Q.** What about the TGI (SK-MEL-2 melanoma) of the same compound?
**A.** 23.6 µM

**Q.** What about the GI50 (OVCAR-5 ovarian) of the same compound?
**A.** 19.5 µM

**Q.** What about the TGI (OVCAR-5 ovarian) of the same compound?
**A.** 43.7 µM

**Q.** What about the GI50 (ACHN renal) of the same compound?
**A.** 18.1 µM

**Q.** What about the TGI (ACHN renal) of the same compound?
**A.** 60.9 µM

**Q.** And the GI50 (RPMI-8226 leukemia)?
**A.** 17.8 µM

**Q.** And the TGI (RPMI-8226 leukemia)?
**A.** 75.5 µM

**Q.** And the GI50 (HS 578T breast)?
**A.** 11.9 µM

**Q.** And the TGI (HS 578T breast)?
**A.** 33.6 µM

**Q.** What about the GI50 (U251 CNS) of the same compound?
**A.** 12 µM

**Q.** And the TGI (U251 CNS)?
**A.** 26.7 µM

**Q.** And the GI50 (PC-3 prostate)?
**A.** 13.1 µM

**Q.** What about the TGI (PC-3 prostate) of the same compound?
**A.** 41.5 µM

— PubChem BioAssay (NCI)
